Reference: patent US20040106172A1, “Hydrolyzing/dehydration condensing enzymes, method for producing the enzyme and method for synthesizing amide by using the enzyme” (Okayama University, priority 2002, published 2004)
Where two headings read alike, the source gives them in different places.

How the values were obtained:
[1] = system: purified enzyme (capsaicin hydrolysis activity); test: Effects of various reagents upon enzymatic activity (capsaicin hydrolysis); assay type: biochemical, Streptomyces mobaraensis IFO 13819
[2] = system: Streptomyces mobaraensis (enzyme according to the invention); test: Hydrolysis of antibiotic substances having an amide bond by the enzyme of the invention; assay type: biochemical; settings: for hydrolyzing activity for the substrate: 10 mM antibiotic, pH 7.5, 37° C., 2 minutes, 0.1 mM CoCl2, 1 Unit = 1 μmol substrate hydrolyzed in 1 hour; for Activity kcat (approximate value): substrate of the enzyme according to the invention
Procedure: The enzyme is examined on the hydrolysis of an antibiotic substance having an amide bond. As the antibiotic substance are used Penicillin G, Penicillin V and Ampicillin, respectively. The reaction is carried out at 37° C. for 2 minutes by using 20 μg of the enzyme in 0.1 ml of 50 mM tris-hydrochloric acid buffer solution containing 0.1 mM of CoCl2 as a solvent (pH: 7.5) under a condition that a final concentration of the antibiotic substance is 10 mM.
As a result, if the hydrolyzing activity for capsaicin at pH of 7.5 is 200 U/mg (Unit is defined as an amount of the enzyme required for hydrolyzing 1 μmol of the substrate at 37° C. for 1 hour), the activities for Penicillin G, Penicillin V and Ampicillin are 2200 U, 6000 U and 1000 U, respectively.
In order to show the utility of the enzyme according to the invention, it is compared with the existing Penicillin Vacylase originated from Streptomyces lavendulae (Raquel Torres-Guzman et al., Biochemical and Biophysical Research Communications, Vol. 291, 593-0597 (2002)) (compared with activity kcat (1/s)).

[3] = system: Penicillin Vacylase originated from Streptomyces lavendulae; settings: cited from earlier work; for Activity kcat: substrate of Streptomyces lavendulae Penicillin V acylase, Torres-Guzman et al. 2002
[4] = pH dependency, heat stability and temperature dependency of the purified enzyme; assay type: physicochemical, Streptomyces mobaraensis IFO 13819
[5] = system: Streptomyces mobaraensis (enzyme according to the invention); test: Hydrolysis of N-benzyloxycarbonyl-L-amino acids by the enzyme of the invention; assay type: biochemical
Procedure: An ability of hydrolyzing/dehydration condensing by the enzyme according to the invention is examined by using N-benzyloxycarbonyl-L-amino acid (Z-L-amino acid) as an amide. The reaction is performed by using […] of the enzyme in 0.2 ml of 50 mM tris-hydrochloric acid buffer solution containing 0.1 mM of CoCl2 as a solvent (pH: 7.5) under a condition that a final concentration of N-benzyloxycarbonyl-L-amino acid is 10 mM at 37° C. for 30 minutes (Z-L-Phe and Z-L-Tyr) or 1 hour (the other Z-L-amino acids).

[6] = system: Urethane hydrolase IV (strain F-86); settings: cited from earlier work
[7] = system: Capsaicin hydrolyzing/dehydration condensing enzyme of the invention; settings: fatty acid as substrate with vanillylamine; water/n-hexane two-phase system, 37° C.; HPLC of hexane phase
Procedure: (§1) The reaction temperature is 37° C.
(§2) As a comparative example, aminoacylase is used. The resulting capsaicin analog is quantitatively measured by HPLC analysis of the hexane phase.

Aminoacylase = test: Synthesis of capsaicin analogs from vanillylamine and fatty acids, comparative aminoacylase; assay type: biochemical; settings: comparative example; fatty acid as substrate with vanillylamine; water/n-hexane two-phase system, 37° C.; HPLC of hexane phase
Procedure: as §1, §2

[8] = reagent 1 mM, 0.13 mM capsaicin/50 mM tris-HCl (pH 7.5), control = 100
[9] = 10 mM Z-L-amino acid, pH 7.5, 37° C., 0.1 mM CoCl2

Row | Compound | Relative activity [1, 8] | Activity for the substrate [5, 9] | Activity for the substrate ([6]; Matsumura et al. 1985) | other results
1 | O=[N+]([O-])[O-].[Ag+] [AgNO3] | 100.1% | – | – | –
2 | CC1(C)S[C@@H]2[C@H](NC(=O)[C@H](N)c3ccccc3)C(=O)N2[C@H]1C(=O)O [Ampicillin] | – | – | – | Activity for the substrate [2]: excellent activity; hydrolyzing activity for the substrate [2]: 1000 U; Activity kcat (approximate value) [2]: >17 s⁻¹; Activity for the substrate [3]: hardly an activity; Activity kcat [3]: 0 s⁻¹
3 | [Ca+2].[Cl-].[Cl-] [CaCl2] | 101.6% | – | – | –
4 | [Cl-].[Cl-].[Co+2] [CoCl2] | – | – | – | effect on capsaicin hydrolysis activity of the purified enzyme [1]: enhanced; Relative activity ([1]; pH 7.5): 145.5%; residual activity with added cobalt ion vs no cobalt ion [4]: higher
5 | O=S(=O)([O-])[O-].[Cu+2] [CuSO4] | 96.9% | – | – | –
6 | O=C(NC(CSCc1ccccc1)C(=O)O)OCc1ccccc1 (stereo not shown) [Cys(Bzl)] | – | 250 Unit/mg | 228 Unit/mg | –
7 | O[C@@H](CS)[C@@H](O)CS [DTT] | 79.8% | – | – | –
8 | O=C(O)CN(CCN(CC(=O)O)CC(=O)O)CC(=O)O [EDTA] | – | – | – | Relative activity ([1]; pH 7.5): 85.5%
9 | O=S(=O)([O-])[O-].[Fe+2] [FeSO4] | 88.8% | – | – | –
10 | N[C@@H](CCC(=O)N[C@@H](CS)C(=O)NCC(=O)O)C(=O)O [GSH] | 99.8% | – | – | –
11 | NC(=O)CI [Idoacetoamide] | 86.5% | – | – | –
12 | N[C@@H](CS)C(=O)O [L-Cys] | 101.2% | – | – | –
13 | CCCCCCCCCCCC(=O)O [Lauric acid] | – | – | – | Synthesis of capsaicin analogs [7]: 1.25 mM; Synthesis of capsaicin analogs (Aminoacylase): 0.051 mM
14 | O=S(=O)([O-])[O-].[Mg+2] [MgSO4] | 96.0% | – | – | –
15 | CCCCCCCCCCCCCC(=O)O [Myristic acid] | – | – | – | Synthesis of capsaicin analogs [7]: 0.24 mM
16 | O=C(O)c1cc[c]([Hg][Cl])cc1 [PCMB] | 96.6% | – | – | –
17 | CC1(C)S[C@@H]2[C@H](NC(=O)Cc3ccccc3)C(=O)N2[C@H]1C(=O)O [Penicillin G] | – | – | – | Activity for the substrate [2]: excellent activity; hydrolyzing activity for the substrate [2]: 2200 U; Activity kcat (approximate value) [2]: >50 s⁻¹; Activity for the substrate [3]: hardly an activity; Activity kcat [3]: 3.4 s⁻¹
18 | CC1(C)S[C@@H]2[C@H](NC(=O)COc3ccccc3)C(=O)N2[C@H]1C(=O)O [Penicillin V] | – | – | – | hydrolyzing activity for the substrate [2]: 6000 U; Activity kcat (approximate value) [2]: >80 s⁻¹; Activity kcat [3]: 60.25 s⁻¹
19 | C[C@H](NC(=O)OCc1ccccc1)C(=O)O [Z-Ala] | – | 29 Unit/mg | 228 Unit/mg | –
20 | N=C(N)NCCC[C@H](NC(=O)OCc1ccccc1)C(=O)O [Z-Arg] | – | 37 Unit/mg | 0 Unit/mg | –

Row | Compound | Relative activity [1, 8] | Activity for the substrate [5, 9] | Activity for the substrate ([6]; Matsumura et al. 1985) | other results
21 | NC(=O)C[C@H](NC(=O)OCc1ccccc1)C(=O)O [Z-Asn] | – | 12 Unit/mg | 138 Unit/mg | –
22 | O=C(O)C[C@H](NC(=O)OCc1ccccc1)C(=O)O [Z-Asp] | – | – | 360 Unit/mg | –
23 | NC(=O)CC[C@H](NC(=O)OCc1ccccc1)C(=O)O [Z-Gln] | – | 27 Unit/mg | 144 Unit/mg | –
24 | O=C(O)CC[C@H](NC(=O)OCc1ccccc1)C(=O)O [Z-Glu] | – | 12 Unit/mg | 246 Unit/mg | –
25 | O=C(O)CNC(=O)OCc1ccccc1 [Z-Gly] | – | 0 Unit/mg | 108 Unit/mg | –
26 | O=C(NC(Cc1cnc[nH]1)C(=O)O)OCc1ccccc1 (stereo not shown) [Z-His] | – | 36 Unit/mg | 18 Unit/mg | –
27 | CCC(C)C(NC(=O)OCc1ccccc1)C(=O)O (stereo not shown) [Z-Ile] | – | 28 Unit/mg | 18 Unit/mg | –
28 | CC(C)C[C@H](NC(=O)OCc1ccccc1)C(=O)O [Z-Leu] | – | 100 Unit/mg | 1668 Unit/mg | –
29 | NCCCC[C@H](NC(=O)OCc1ccccc1)C(=O)O [Z-Lys] | – | 38 Unit/mg | 0 Unit/mg | –
30 | CSCCC(NC(=O)OCc1ccccc1)C(=O)O (stereo not shown) [Z-Met] | – | 85 Unit/mg | 294 Unit/mg | –
31 | O=C(N[C@@H](Cc1ccccc1)C(=O)O)OCc1ccccc1 [Z-Phe] | – | 470 Unit/mg | 54 Unit/mg | Activity for the substrate [5]: high activity; Activity for the substrate [6]: lower activity
32 | O=C(N[C@@H](CO)C(=O)O)OCc1ccccc1 [Z-Ser] | – | 0 Unit/mg | 18 Unit/mg | –
33 | C[C@@H](O)[C@H](NC(=O)OCc1ccccc1)C(=O)O [Z-Thr] | – | 4.5 Unit/mg | 162 Unit/mg | –
34 | O=C(N[C@@H](Cc1ccc(O)cc1)C(=O)O)OCc1ccccc1 [Z-Tyr] | – | 650 Unit/mg | 0 Unit/mg | Activity for the substrate [5]: high activity; Activity for the substrate [6]: lower activity
35 | CC(C)C(NC(=O)OCc1ccccc1)C(=O)O (stereo not shown) [Z-Val] | – | 43 Unit/mg | 84 Unit/mg | –
36 | [Cl-].[Cl-].[Zn+2] [ZnCl2] | 95.5% | – | – | –
37 | COc1cc(CNC(=O)CCCC/C=C/C(C)C)ccc1O [capsaicin] | – | – | – | hydrolyzing activity for capsaicin ([2]; pH 7.5, reference value for the antibiotic activities): 200 U/mg
38 | OCCS [β-mercaptoethanol] | – | – | – | Relative activity ([1]; reagent 10 mM, 0.13 mM capsaicin/50 mM tris-HCl (pH 7.5), control = 100): 79.3%
39 | (NH4)6Mo7O24 | 88.7% | – | – | –
